# Literature values, collected in patent US20110086070A1, “Orally disintegrating compositions of rhein or diacerein” (priority 2008, published 2011).
# Counter-ions that a name gives are not always drawn.
# Key:
# [1] = oral route
absorption by the digestive tract [1],"solubility in solvents (solvents such as water, alcohols, acetone, dichloromethane and chloroform)","solubility in water (water, disclosed in EP 243,968)",Compound
cannot be completely absorbed,practically insoluble,,"CC(=O)Oc1cccc2c1C(=O)c1c(OC(C)=O)cc(C(=O)O)cc1C2=O [Diacerein, 4,5-bis(acetyloxy)9,10-dihydro-4,5-dihydroxy-9,10-dioxo-2-anthracenecarboxylic acid]"
,,water-soluble,CC(=O)Oc1cccc2c1C(=O)c1c(OC(C)=O)cc(C(=O)O)cc1C2=O [potassium salt of diacerein]
